Test results: the NIST ThermoML archive (doi:10.1021/je301087w)
± gives the expanded uncertainty stated by the source.

Key:
[1] = Crystal; DTA
[2] = Molar enthalpy of transition or fusion; conditions: Crystal; DSC

Normal melting temperature [1]	Molar enthalpy of transition or fusion [2]	SMILES
9.90 ± 0.53 °C	4.66 ± 0.932 kcal/mol	C1COCCOCCOCCOCCOCCO1.O.O.O.O.O.O.O.O.O.O.O.O [1,4,7,10,13,16-hexaoxacyclooctadecane dodecahydrate]
17.10 ± 0.53 °C	2.8 ± 0.574 kcal/mol	C1COCCOCCOCCOCCOCCO1.O.O.O.O.O.O.O.O [1,4,7,10,13,16-hexaoxacyclooctadecane octahydrate]
39.10 ± 0.53 °C	8.48 ± 0.741 kcal/mol	C1COCCOCCOCCOCCOCCO1 [1,4,7,10,13,16-hexaoxacyclooctadecane]
